From ChEMBL document CHEMBL4431295 (Medchemcomm, 2016)
Active and inactive are the calls of the source. The rule behind the calls is not given here.

Assays:
SK-N-SH [1] = assay: Induction of apoptosis in human SK-N-SH cells assessed as late apoptotic cells at 1.25 uM by Annexin V-FITC/propidium iodide staining based flow cytometry (reference value: 1.7%); assay type: functional
SK-N-SH [2] = assay: Cell cycle arrest in human SK-N-SH cells assessed as G1/G0 phase accumulation at 10 uM after 24 hrs by FITC/propidium iodide staining based flow cytometry (reference value: 57.72%); assay type: functional
SK-N-SH [3] = assay: Induction of apoptosis in human SK-N-SH cells assessed as chromatin shrinkage at 5 to 10 uM after 24 hrs by Hoechst 33258 staining based fluorescence microscopic analysis; assay type: functional, cell-based
SK-N-SH [4] = assay: Induction of apoptosis in human SK-N-SH cells assessed as late apoptotic cells at 5 uM by Annexin V-FITC/propidium iodide staining based flow cytometry (reference value: 1.7%); assay type: functional
SK-N-SH [5] = assay: Induction of apoptosis in human SK-N-SH cells assessed as necrotic cells at 5 uM by Annexin V-FITC/propidium iodide staining based flow cytometry (reference value: 0.3%); assay type: functional
SK-N-SH [6] = assay: Induction of apoptosis in human SK-N-SH cells assessed as live cells at 5 uM by Annexin V-FITC/propidium iodide staining based flow cytometry (reference value: 90.9%); assay type: functional
SK-N-SH [7] = assay: Induction of apoptosis in human SK-N-SH cells assessed as early apoptotic cells at 1.25 uM by Annexin V-FITC/propidium iodide staining based flow cytometry (reference value: 7.1%); assay type: functional
SK-N-SH [8] = assay: Induction of apoptosis in human SK-N-SH cells assessed as early apoptotic cells at 20 uM by Annexin V-FITC/propidium iodide staining based flow cytometry (reference value: 7.1%); assay type: functional
SK-N-SH [9] = assay: Induction of apoptosis in human SK-N-SH cells assessed as early apoptotic cells at 10 uM by Annexin V-FITC/propidium iodide staining based flow cytometry (reference value: 7.1%); assay type: functional
SK-N-SH [10] = assay: Cell cycle arrest in human SK-N-SH cells assessed as G1/G0 phase accumulation at 5 uM after 24 hrs by FITC/propidium iodide staining based flow cytometry (reference value: 57.72%); assay type: functional
GES1 = assay: Cytotoxicity against human GES-1 cells assessed as cell growth inhibition after 72 hrs by MTT assay; assay type: cell-based; settings: GES1, 72 h
SK-N-SH [11] = assay: Cell cycle arrest in human SK-N-SH cells assessed as S phase accumulation at 10 uM after 24 hrs by FITC/propidium iodide staining based flow cytometry (reference value: 37.4%); assay type: functional
SK-N-SH [12] = assay: Induction of apoptosis in human SK-N-SH cells assessed as live cells at 20 uM by Annexin V-FITC/propidium iodide staining based flow cytometry (reference value: 90.9%); assay type: functional
SK-N-SH [13] = assay: Induction of apoptosis in human SK-N-SH cells assessed as cell rounding at 5 to 10 uM after 24 hrs by Hoechst 33258 staining based fluorescence microscopic analysis; assay type: functional
SK-N-SH [14] = assay: Cell cycle arrest in human SK-N-SH cells assessed as G2/M phase accumulation at 5 uM after 24 hrs by FITC/propidium iodide staining based flow cytometry (reference value: 6.03%); assay type: functional
MGC-803 = assay: Antiproliferative activity against human MGC803 cells after 72 hrs by MTT assay; assay type: functional, cell-based; settings: MGC-803, 72 h
SK-N-SH [15] = assay: Induction of apoptosis in human SK-N-SH cells assessed as necrotic cells at 20 uM by Annexin V-FITC/propidium iodide staining based flow cytometry (reference value: 0.3%); assay type: functional
SK-N-SH [16] = assay: Cell cycle arrest in human SK-N-SH cells assessed as G1/G0 phase accumulation after 24 hrs by FITC/propidium iodide staining based flow cytometry; assay type: functional
SK-N-SH [17] = assay: Antiproliferative activity against human SK-N-SH cells after 72 hrs by MTT assay; assay type: functional, cell-based
SK-N-SH [18] = assay: Cell cycle arrest in human SK-N-SH cells assessed as G1/G0 phase accumulation at 2.5 uM after 24 hrs by FITC/propidium iodide staining based flow cytometry (reference value: 57.72%); assay type: functional
SK-N-SH [19] = assay: Induction of apoptosis in human SK-N-SH cells assessed as increase in p53 expression at 5 to 10 uM after 24 hrs by Western blot analysis; assay type: functional, cell-based
SK-N-SH [20] = assay: Induction of apoptosis in human SK-N-SH cells assessed as necrotic cells at 2.5 uM by Annexin V-FITC/propidium iodide staining based flow cytometry (reference value: 0.3%); assay type: functional
SK-N-SH [21] = assay: Induction of apoptosis in human SK-N-SH cells assessed as live cells at 1.25 uM by Annexin V-FITC/propidium iodide staining based flow cytometry (reference value: 90.9%); assay type: functional
SK-N-SH [22] = assay: Induction of apoptosis in human SK-N-SH cells assessed as decrease in pro-caspase-3 expression at 5 to 10 uM after 24 hrs by Western blot analysis; assay type: functional, cell-based
SK-N-SH [23] = assay: Induction of apoptosis in human SK-N-SH cells assessed as necrotic cells at 10 uM by Annexin V-FITC/propidium iodide staining based flow cytometry (reference value: 0.3%); assay type: functional
SK-N-SH [24] = assay: Induction of apoptosis in human SK-N-SH cells assessed as formation of apoptotic bodies at 5 to 10 uM after 24 hrs by Hoechst 33258 staining based fluorescence microscopic analysis; assay type: functional, cell-based
SK-N-SH [25] = assay: Induction of apoptosis in human SK-N-SH cells assessed as necrotic cells at 1.25 uM by Annexin V-FITC/propidium iodide staining based flow cytometry (reference value: 0.3%); assay type: functional
SK-N-SH [26] = assay: Induction of apoptosis in human SK-N-SH cells assessed as live cells at 10 uM by Annexin V-FITC/propidium iodide staining based flow cytometry (reference value: 90.9%); assay type: functional
SK-N-SH [27] = assay: Induction of apoptosis in human SK-N-SH cells assessed as early apoptotic cells at 2.5 uM by Annexin V-FITC/propidium iodide staining based flow cytometry (reference value: 7.1%); assay type: functional
SK-N-SH [28] = assay: Induction of apoptosis in human SK-N-SH cells assessed as late apoptotic cells at 20 uM by Annexin V-FITC/propidium iodide staining based flow cytometry (reference value: 1.7%); assay type: functional
SK-N-SH [29] = assay: Induction of apoptosis in human SK-N-SH cells assessed as live cells at 2.5 uM by Annexin V-FITC/propidium iodide staining based flow cytometry (reference value: 90.9%); assay type: functional
SK-N-SH [30] = assay: Induction of apoptosis in human SK-N-SH cells assessed as increase in caspase-3 expression at 5 to 10 uM after 24 hrs by Western blot analysis; assay type: functional, cell-based
SK-N-SH [31] = assay: Induction of apoptosis in human SK-N-SH cells assessed as late apoptotic cells at 2.5 uM by Annexin V-FITC/propidium iodide staining based flow cytometry (reference value: 1.7%); assay type: functional
HepG2 = assay: Antiproliferative activity against human HepG2 cells after 72 hrs by MTT assay; assay type: functional, cell-based; settings: HepG2, 72 h
SK-N-SH [32] = assay: Cell cycle arrest in human SK-N-SH cells assessed as S phase accumulation at 2.5 uM after 24 hrs by FITC/propidium iodide staining based flow cytometry (reference value: 37.4%); assay type: functional
SK-N-SH [33] = assay: Cell cycle arrest in human SK-N-SH cells assessed as G2/M phase accumulation at 2.5 uM after 24 hrs by FITC/propidium iodide staining based flow cytometry (reference value: 6.03%); assay type: functional
SK-N-SH [34] = assay: Induction of apoptosis in human SK-N-SH cells assessed as early apoptotic cells at 5 uM by Annexin V-FITC/propidium iodide staining based flow cytometry (reference value: 7.1%); assay type: functional
SK-N-SH [35] = assay: Induction of apoptosis in human SK-N-SH cells assessed as late apoptotic cells at 10 uM by Annexin V-FITC/propidium iodide staining based flow cytometry (reference value: 1.7%); assay type: functional
SK-N-SH [36] = assay: Cell cycle arrest in human SK-N-SH cells assessed as G2/M phase accumulation at 10 uM after 24 hrs by FITC/propidium iodide staining based flow cytometry (reference value: 6.03%); assay type: functional
SK-N-SH [37] = assay: Cell cycle arrest in human SK-N-SH cells assessed as S phase accumulation at 5 uM after 24 hrs by FITC/propidium iodide staining based flow cytometry (reference value: 37.4%); assay type: functional

SMILES: COc1cccc(Cn2cc(CNc3ccc(C(=O)/C=C/c4cccnc4)cc3)nn2)c1
- Activity (SK-N-SH [1]): 1.2%
- Activity (SK-N-SH [2]): 81.8%
- Activity (SK-N-SH [3]): Active
- Activity (SK-N-SH [4]): 2.5%
- Activity (SK-N-SH [5]): 0.8%
- Activity (SK-N-SH [6]): 87.1%
- Activity (SK-N-SH [7]): 5.7%
- Activity (SK-N-SH [8]): 39.7%
- Activity (SK-N-SH [9]): 31.9%
- Activity (SK-N-SH [10]): 71.27%
- IC50 (GES1): 31100 nM
- Activity (SK-N-SH [11]): 10.34%
- Activity (SK-N-SH [12]): 1%
- Activity (SK-N-SH [13]): Active
- Activity (SK-N-SH [14]): 14.2%
- IC50 (MGC-803): 2730 nM
- Activity (SK-N-SH [15]): 1.6%
- Activity (SK-N-SH [16]): Dose-dependent effect
- IC50 (SK-N-SH [17]): 1530 nM
- Activity (SK-N-SH [18]): 67.06%
- Activity (SK-N-SH [19]): Active
- Activity (SK-N-SH [20]): 0.7%
- Activity (SK-N-SH [21]): 92.9%
- Activity (SK-N-SH [22]): Active
- Activity (SK-N-SH [23]): 0.5%
- Activity (SK-N-SH [24]): Active
- Activity (SK-N-SH [25]): 0.3%
- Activity (SK-N-SH [26]): 48.8%
- Activity (SK-N-SH [27]): 5.8%
- Activity (SK-N-SH [28]): 57.7%
- Activity (SK-N-SH [29]): 91.4%
- Activity (SK-N-SH [30]): Active
- Activity (SK-N-SH [31]): 2.1%
- IC50 (HepG2): 2210 nM
- Activity (SK-N-SH [32]): 19.11%
- Activity (SK-N-SH [33]): 18.71%
- Activity (SK-N-SH [34]): 9.6%
- Activity (SK-N-SH [35]): 18.8%
- Activity (SK-N-SH [36]): 7.17%
- Activity (SK-N-SH [37]): 15.65%
